Results on ten compounds are retold here after article PMC12096176 (RSC Chemical Biology, 2025).

One assay has as its target KOR (Homo sapiens, UniProt P41145). It counts as binding.
Assay [1] addresses MOR (Mus musculus, UniProt P42866). Description: MOR [35S]GTPγS functional assay, MOR-CHO membranes. The settings on record: for MOR [35S]GTPγS Emax: relative to maximal stimulation produced by DAMGO; for Emax: read-out: MOR [35S]GTPγS Emax, relative to maximal stimulation produced by DAMGO. It counts as biochemical. Background: GTPγS resists hydrolysis and so accumulates on activated G proteins.

A further assay deals with DOR (Homo sapiens, UniProt P41143). It counts as binding.
The test system of assay [2] is MOR. It counts as binding. The settings on record: for Selectivity D/M: ratio Ki DOR / Ki MOR; for Selectivity K/M: ratio Ki KOR / Ki MOR.
In assay [3] the test system is Swiss Webster mice. The experiment in a line: Warm-water tail immersion assay, agonism. The settings on record: single dose 10 mg kg^−1 s.c., 20 min after injection.
Assay [4] deals with Swiss Webster mice. Description: Warm-water tail immersion assay, antagonism of morphine antinociception. The settings on record: single dose 10 mg kg^−1 s.c. in the presence of morphine 10 mg kg^−1 s.c.

In general, Ki refers to the dissociation constant of the complex between target and ligand, obtained from inhibition or displacement. Higher therefore signals weaker binding. Usually EC50 stands for the concentration needed to bring the measured effect to its halfway point. High values mean weaker potency, low ones greater potency. On KOR, `Cl.O=C(N[C@H]1CC[C@@]2(O)[C@H]3Cc4ccc(O)c5c4[C@@]2(CCN3CC2CC2)[C@H]1O5)c1cccc2c(Br)coc12` [Compound 2, 3-Bromo-N-((4R,4aS,7S,7aR,12bS)-3-(cyclopropylmethyl)-4a,9-dihydroxy-2,3,4,4a,5,6,7,7a-octahydro-1H-4,12-methanobenzofuro[3,2-e]isoquinolin-7-yl)benzofuran-7-carboxamide hydrochloride] showed an inhibitory constant (Ki) of 17.3 ± 1.2 nM. Moreover, on MOR [1], the response was half-maximal at 7.37 ± 2.32 nM (EC50) and the “MOR [35S]GTPγS Emax” value came out at 16.0 ± 4.0%. This compound gave an inhibition constant Ki at DOR of 87.8 ± 5.5 nM. In the assay on MOR [2], the “Selectivity D/M” value was 154 and the “Selectivity K/M” value was determined as 30.
Usually Emax stands for the maximal effect, on the per cent scale that the assay sets. Consider `O=C(N[C@H]1CC[C@@]2(O)[C@H]3Cc4ccc(O)c5c4[C@@]2(CCN3CC2CC2)[C@H]1O5)c1cccc2c(Cl)coc12` [Compound 3, 3-Chloro-N-((4R,4aS,7S,7aR,12bS)-3-(cyclopropylmethyl)-4a,9-dihydroxy-2,3,4,4a,5,6,7,7a-octahydro-1H-4,12-methanobenzofuro[3,2-e]isoquinolin-7-yl)benzofuran-7-carboxamide], for which the Ki at KOR stood at 17.1 ± 1.3 nM. Further, at MOR [1], the EC50 came to 2.65 ± 0.47 nM and the maximal effect (Emax) was determined as 21.6 ± 0.8%. This compound returned a Ki on DOR of 138 ± 24 nM. In the assay with MOR [2], the “Selectivity D/M” value was found to be 277 and the “Selectivity K/M” value worked out at 34.
At KOR, `Cc1coc2c(C(=O)N[C@H]3CC[C@@]4(O)[C@H]5Cc6ccc(O)c7c6[C@@]4(CCN5CC4CC4)[C@H]3O7)cccc12` [Compound 4, N-((4R,4aS,7S,7aR,12bS)-3-(Cyclopropylmethyl)-4a,9-dihydroxy-2,3,4,4a,5,6,7,7a-octahydro-1H-4,12-methanobenzofuro[3,2-e]isoquinolin-7-yl)-3-methylbenzofuran-7-carboxamide] yielded an inhibitory constant (Ki) of 15.7 ± 1.3 nM. Besides, on MOR [1], it took 4.52 ± 0.39 nM to reach a half-maximal effect (EC50) and the maximal effect (Emax) is 23.5 ± 1.6%. On DOR, this compound registered an inhibition constant (Ki) of 87 ± 5.3 nM. Besides, in the assay with MOR [2], the “Selectivity D/M” value was 130 and the “Selectivity K/M” value is given as 23.
Regarding `O=C(N[C@H]1CC[C@@]2(O)[C@H]3Cc4ccc(O)c5c4[C@@]2(CCN3CC2CC2)[C@H]1O5)c1cccc2c(-c3ccccc3)coc12` [Compound 5, N-((4R,4aS,7S,7aR,12bS)-3-(Cyclopropylmethyl)-4a,9-dihydroxy-2,3,4,4a,5,6,7,7a-octahydro-1H-4,12-methanobenzofuro[3,2-e]isoquinolin-7-yl)-3-phenylbenzofuran-7-carboxamide], at KOR, affinity was put at a Ki of 33.8 ± 5.6 nM. Moreover, on MOR [1], the concentration for a half-maximal effect (EC50) is 27.4 ± 5 nM and the Emax worked out at 17.3 ± 1%. In addition, the Ki at DOR worked out at 238 ± 28 nM. Moreover, in the assay on MOR [2], the “Selectivity D/M” value is 173 and the “Selectivity K/M” value is 24.
Compound `O=C(N[C@H]1CC[C@@]2(O)[C@H]3Cc4ccc(O)c5c4[C@@]2(CCN3CC2CC2)[C@H]1O5)c1cccc2c(-c3ccncc3)coc12` [Compound 6, N-((4R,4aS,7S,7aR,12bS)-3-(Cyclopropylmethyl)-4a,9-dihydroxy-2,3,4,4a,5,6,7,7a-octahydro-1H-4,12-methanobenzofuro[3,2-e]isoquinolin-7-yl)-3-(pyridin-4-yl)benzofuran-7-carboxamide] came in with a Ki at KOR of 8.7 ± 1.5 nM. At MOR [1], the response was half-maximal at 12 ± 2.1 nM (EC50) and the Emax is 14.8 ± 1.6%. The same compound had an inhibition constant Ki at DOR of 97.7 ± 16.3 nM. In addition, in the assay on MOR [2], the “Selectivity D/M” value is reported as 41 and the “Selectivity K/M” value was found to be 3.7.
For `Cl.O=C(N[C@@H]1CC[C@@]2(O)[C@H]3Cc4ccc(O)c5c4[C@@]2(CCN3CC2CC2)[C@H]1O5)c1cccc2c(Br)coc12` [Compound 8, 3-Bromo-N-((4R,4aS,7R,7aR,12bS)-3-(cyclopropylmethyl)-4a,9-dihydroxy-2,3,4,4a,5,6,7,7a-octahydro-1H-4,12-methanobenzofuro[3,2-e]isoquinolin-7-yl)benzofuran-7-carboxamide hydrochloride], the affinity at KOR corresponds to a Ki of 0.21 ± 0.01 nM. At MOR [1], the half-maximal effective concentration (EC50) stood at 0.49 ± 0.08 nM and the “MOR [35S]GTPγS Emax” value is on record as 42.9 ± 3.9%. The compound also yielded a Ki at DOR of 5.34 ± 0.99 nM. In addition, in the assay on MOR [2], the “Selectivity D/M” value is listed as 27 and the “Selectivity K/M” value was 1.0. Besides, the “%MPE (antinociception)” value in the assay on Swiss Webster mice [3] was determined as 90.9%.
As for `O=C(N[C@@H]1CC[C@@]2(O)[C@H]3Cc4ccc(O)c5c4[C@@]2(CCN3CC2CC2)[C@H]1O5)c1cccc2c(Cl)coc12` [Compound 9, 3-Chloro-N-((4R,4aS,7R,7aR,12bS)-3-(cyclopropylmethyl)-4a,9-dihydroxy-2,3,4,4a,5,6,7,7a-octahydro-1H-4,12-methanobenzofuro[3,2-e]isoquinolin-7-yl)benzofuran-7-carboxamide], the inhibition constant Ki at KOR worked out at 0.16 ± 0.02 nM. At MOR [1], a half-maximal effect (EC50) was put at 0.35 ± 0.07 nM and the maximal effect (Emax) turned out to be 51.2 ± 3.4%. In addition, the Ki on DOR came out at 5.17 ± 1.13 nM. In the assay with MOR [2], the “Selectivity D/M” value was 37 and the “Selectivity K/M” value worked out at 1.1. Besides, the “%MPE (antinociception)” value with Swiss Webster mice [3] stood at 84.5%.
With `Cc1coc2c(C(=O)N[C@@H]3CC[C@@]4(O)[C@H]5Cc6ccc(O)c7c6[C@@]4(CCN5CC4CC4)[C@H]3O7)cccc12` [Compound 10, N-((4R,4aS,7R,7aR,12bS)-3-(Cyclopropylmethyl)-4a,9-dihydroxy-2,3,4,4a,5,6,7,7a-octahydro-1H-4,12-methanobenzofuro[3,2-e]isoquinolin-7-yl)-3-methylbenzofuran-7-carboxamide], the inhibitory constant (Ki) on KOR stood at 0.44 ± 0.08 nM. For the same compound, at MOR [1], the EC50 was determined as 0.81 ± 0.14 nM and the Emax stood at 32.7 ± 3.3%. The same compound came in with an inhibitory constant (Ki) at DOR of 13.1 ± 1.1 nM. In addition, in the assay with MOR [2], the “Selectivity D/M” value worked out at 57 and the “Selectivity K/M” value is reported as 1.9. Also, the “%MPE (antinociception)” value with Swiss Webster mice [3] is listed as 54.2%.
Regarding `O=C(N[C@@H]1CC[C@@]2(O)[C@H]3Cc4ccc(O)c5c4[C@@]2(CCN3CC2CC2)[C@H]1O5)c1cccc2c(-c3ccccc3)coc12` [Compound 11, N-((4R,4aS,7R,7aR,12bS)-3-(Cyclopropylmethyl)-4a,9-dihydroxy-2,3,4,4a,5,6,7,7a-octahydro-1H-4,12-methanobenzofuro[3,2-e]isoquinolin-7-yl)-3-phenylbenzofuran-7-carboxamide], the affinity at KOR, expressed as Ki, was 19.7 ± 2.2 nM. Moreover, the “ability to reverse the antinociceptive effects of morphine” value in the assay on Swiss Webster mice [4] is on record as “considerable antagonism activity”. At MOR [1], a half-maximal response (EC50) required 0.56 ± 0.07 nM and the maximal response (Emax) was approximately 10%. Moreover, the Ki at DOR amounted to 22.1 ± 3.2 nM. Moreover, in the assay on MOR [2], the “Selectivity D/M” value was found to be 123 and the “Selectivity K/M” value is 110.
Take `O=C(N[C@@H]1CC[C@@]2(O)[C@H]3Cc4ccc(O)c5c4[C@@]2(CCN3CC2CC2)[C@H]1O5)c1cccc2c(-c3ccncc3)coc12` [Compound 12, N-((4R,4aS,7R,7aR,12bS)-3-(Cyclopropylmethyl)-4a,9-dihydroxy-2,3,4,4a,5,6,7,7a-octahydro-1H-4,12-methanobenzofuro[3,2-e]isoquinolin-7-yl)-3-(pyridin-4-yl)benzofuran-7-carboxamide]: on KOR, the Ki is 7.34 ± 0.95 nM. Also, the “ability to reverse the antinociceptive effects of morphine” value in the assay with Swiss Webster mice [4] is given as “considerable antagonism activity”. On MOR [1], the concentration giving a half-maximal response (EC50) was found to be 1.2 ± 0.38 nM and the maximal effect (Emax) is approximately 10%. Further, at DOR, the affinity, expressed as Ki, was 45 ± 9.3 nM. In the assay on MOR [2], the “Selectivity D/M” value is 213 and the “Selectivity K/M” value was found to be 35.
